What was measured:
[1] = molecular target: Bone morphogenetic protein receptor type-1B (Homo sapiens, UniProt O00238)
[2] = molecular target: Activin receptor type-1-like (Homo sapiens, UniProt P37023)
Activin receptor type-1-like, sequence (P37023 22-503 limits assumed, change not shown): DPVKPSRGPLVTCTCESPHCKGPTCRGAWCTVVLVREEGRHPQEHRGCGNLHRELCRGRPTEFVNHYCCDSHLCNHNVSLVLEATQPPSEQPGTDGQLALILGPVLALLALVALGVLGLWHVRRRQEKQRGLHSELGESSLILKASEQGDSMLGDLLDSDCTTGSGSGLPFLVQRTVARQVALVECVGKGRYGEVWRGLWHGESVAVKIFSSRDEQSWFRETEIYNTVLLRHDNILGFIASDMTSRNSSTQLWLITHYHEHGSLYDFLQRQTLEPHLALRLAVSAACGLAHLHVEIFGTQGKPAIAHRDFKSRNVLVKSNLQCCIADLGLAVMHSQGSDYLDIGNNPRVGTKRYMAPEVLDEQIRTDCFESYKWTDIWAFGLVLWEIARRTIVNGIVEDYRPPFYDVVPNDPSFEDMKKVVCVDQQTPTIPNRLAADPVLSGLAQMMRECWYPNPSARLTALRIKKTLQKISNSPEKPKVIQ

Bone morphogenetic protein receptor type-1B, sequence (O00238 14-502 limits assumed, change not shown): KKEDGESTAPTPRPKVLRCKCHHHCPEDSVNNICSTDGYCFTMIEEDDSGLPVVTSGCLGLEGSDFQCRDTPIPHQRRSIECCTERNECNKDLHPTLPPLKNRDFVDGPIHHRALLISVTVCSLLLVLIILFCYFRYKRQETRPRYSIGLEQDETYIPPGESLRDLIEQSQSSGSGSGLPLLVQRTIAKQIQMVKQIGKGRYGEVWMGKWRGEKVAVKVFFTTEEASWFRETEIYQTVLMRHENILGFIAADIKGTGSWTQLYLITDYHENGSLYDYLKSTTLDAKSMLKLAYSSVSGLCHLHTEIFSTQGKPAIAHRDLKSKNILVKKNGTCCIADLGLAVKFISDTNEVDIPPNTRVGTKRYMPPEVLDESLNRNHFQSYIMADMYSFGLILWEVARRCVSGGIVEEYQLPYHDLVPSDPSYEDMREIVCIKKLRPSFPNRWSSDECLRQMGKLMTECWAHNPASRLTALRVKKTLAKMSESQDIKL

IC50 [1]: 10 µM | IC50 [2]: 0.89 µM
Compound: NC(=O)c1ccc(-c2cnc(N)c(C(=O)N[C@H]3CC[C@@H](O)CC3)c2)cc1

Source: ChEMBL document CHEMBL5728326, “Aminopyridine derivatives and their use as selective ALK-2 inhibitors” (2021)
